Reference: PubChem BioAssay (NCI)
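In this assay, cells in 96-well plates receive the compound at five concentrations for 48 hours. Endpoints are linearly interpolated between the surrounding concentrations. GI50 is the concentration that inhibits growth by half. TGI: total growth inhibition.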

Tests used:
Experiment in all cases: inhibition of tumour cell growth, NCI panel, 48 h
A549 NSCLC = tested on: A549 NSCLC
HT29 colon = tested on: HT29 colon
KM12 colon = tested on: KM12 colon
MDA-MB-231 breast = tested on: MDA-MB-231 breast
NCI-H226 lung = tested on: NCI-H226 lung
NCI-H23 lung = tested on: NCI-H23 lung
SNB-19 CNS = tested on: SNB-19 CNS
SR leukemia = tested on: SR leukemia

Row | SMILES | GI50 (A549 NSCLC) | TGI (A549 NSCLC) | GI50 (HT29 colon) | TGI (HT29 colon) | GI50 (KM12 colon) | TGI (KM12 colon) | GI50 (MDA-MB-231 breast) | TGI (MDA-MB-231 breast) | GI50 (NCI-H226 lung) | TGI (NCI-H226 lung) | GI50 (NCI-H23 lung) | TGI (NCI-H23 lung) | GI50 (SNB-19 CNS) | TGI (SNB-19 CNS) | GI50 (SR leukemia) | TGI (SR leukemia)
1 | COc1ccc(/C=C/C(=O)c2ccc(O)c(CN3CCN(c4cc5c(cc4F)c(=O)c(C(=O)O)cn5C4CC4)CC3)c2)cc1 | 3.69 µM | > 100 µM | 1.08 µM | > 100 µM | 1.27 µM | > 100 µM | 2.19 µM | 13 µM | 3.75 µM | > 100 µM | 2.33 µM | > 100 µM | 0.785 µM | > 100 µM | 0.354 µM | 14.9 µM
2 | COc1ccc(-c2nc(-c3ccccc3)c(-c3ccccc3)[nH]2)cc1OC1CCCC1 | > 100 µM | > 100 µM | 30.8 µM | > 100 µM | 40.9 µM | > 100 µM | 15.5 µM | > 100 µM | > 100 µM | > 100 µM | > 100 µM | > 100 µM | > 100 µM | > 100 µM | 15 µM | > 100 µM
3 | CCCCC[C@H]1C/C=C2/C(=O)C=C[C@@H]2C/C=C\CCCC(=O)O[C@@H](CCCCC)C/C=C2/C(=O)C=C[C@@H]2C/C=C\CCCC(=O)O1 | 0.528 µM | 1.35 µM | 0.218 µM | 0.822 µM | 0.382 µM | 0.786 µM | 0.132 µM | 2.17 µM | 0.746 µM | 1.64 µM | 0.289 µM | 0.822 µM | 0.318 µM | 0.809 µM | 0.0825 µM | 0.52 µM
4 | NC(=O)c1ccc(I)c(N=O)c1 | 42.1 µM | > 100 µM | 20.6 µM | 39.5 µM | 40.7 µM | > 100 µM | 35.5 µM | > 100 µM | 58.8 µM | > 100 µM | 51.7 µM | > 100 µM | > 100 µM | > 100 µM | 40.6 µM | > 100 µM
5 | C[C@]12CCc3sc(NCCc4ccccc4)nc3C1=CC[C@@H]1[C@@H]2CC[C@]2(C)C(=O)CC[C@@H]12 | 7 µM | > 100 µM | 2.2 µM | 8.11 µM | 3.6 µM | > 100 µM | 3.4 µM | 21.4 µM | 2.42 µM | 6.57 µM | 5.03 µM | > 100 µM | 97.5 µM | > 100 µM | 3.06 µM | > 100 µM
6 | O=C(Nc1cccc(-n2cc(-c3ccncc3)c(-c3ccc(Cl)c(O)c3)n2)c1)c1ccc(N2CCOCC2)c(C(F)(F)F)c1 | 3.08 µM | > 50 µM | 14.4 µM | > 50 µM | 1.94 µM | > 50 µM | 0.975 µM | 15.6 µM | > 50 µM | > 50 µM | 4.2 µM | 30.2 µM | 4.11 µM | > 50 µM | 1.63 µM | > 50 µM
7 | CNC(=O)c1cccc2cc(Oc3ccnc4cc(OCC5(N)CC5)c(OC)cc34)ccc12 | 10.9 µM | 26.3 µM | 6.73 µM | 21.1 µM | 6.17 µM | 19.7 µM | 9.79 µM | 27.9 µM | 1.02 µM | 23.2 µM | 11.2 µM | 28.9 µM | 5.82 µM | 30.4 µM | 2.29 µM | 10.6 µM
